Data taken from US7410971B2, “1,2-di(cyclic)substituted benzene compounds” (Eisai R&D Management Co., Ltd., priority 2003, dated 2008).

Experiments:
[1] = system: Jurkat cells; assay: Jurkat cell adhesion system (adhesion to immobilized human fibronectin, PMA-stimulated); format: cell-based; conditions: concentration inhibiting by 50% the PMA-stimulated increase in number of adhered Jurkat cells on human fibronectin
Description: Evaluation of Compounds in Jurkat Cell Adhesion System
<Immobilization of Human Fibronectin in 96-Well Plate>
Human fibronectin (Becton Dickinson Biosciences) was diluted with phosphate-buffered saline (hereinafter abbreviated as PBS; Sigma) to 0.1-0.01 μg/ml, and the diluted solution was added to a 96-well plate (Becton Dickinson) at 50μ/well, and allowed to stand overnight at 4° C. On the following day, the supernatant was removed from the plate, and then PBS containing 1% bovine serum albumin (hereinafter abbreviated as BSA; Sigma) was added thereto at 100 μl/well and incubation was performed at 37° C. for 2 hours in a CO2 incubator (Hirasawa).
The supernatant was removed from each plate and Jurkat cells suspended in RPMI-1640 (Sigma) containing 1 mg/ml BSA were added at 80 μl/well for 2.5×10^5 cells/well. The compound diluted to different concentrations with RPMI-1640 containing 1 mg/ml BSA was immediately added at 10 μl/well, and then 100 nM phorbol myristate acetate (hereinafter abbreviated as PMA; Sigma) in RPMI-1640 containing 1 mg/ml BSA was added at 10 μl/well and the plate was incubated in a CO2 incubator at 37° C. for 45-60 minutes. The supernatant was removed from the plate and each well was washed several times with 100 μl/well of RPMI-1640, after which 50 mM citrate buffer (pH 5.0) containing 3.75 mM p-nitrophenol-N-acetyl-β-D-glucosaminide (Sigma) and 0.25% Triton X-100 (Sigma) were added at 60 μl/well, and the mixture was placed in a CO2 incubator and incubated at 37° C. for 45 minutes. After incubation, 50 mM glycine buffer (pH 10.4) containing 5 mM EDTA was added at 90 μl/well, and the absorbance at 405 nm was measured with an EL340 Automated Microplate Reader (BIO-TEK) to determine the adhered cell count. The concentration of each compound which inhibited the increase in the number of adhered cells by the PMA-stimulation by 50% was recorded as the IC50 (μM).

[2] = system: human peripheral blood neutrophils; assay: Human peripheral blood neutrophil adhesion system (adhesion to immobilized HUVEC, PMA-stimulated); format: cell-based; conditions: concentration inhibiting by 50% the PMA-stimulated increase in number of adhered BCECF-AM labeled neutrophils on HUVEC immobilized plate
Description: Evaluation of Compounds in Human Peripheral Blood Neutrophil Adhesion System
<Preparation of Human Peripheral Blood Neutrophils>
To a plastic centrifugation tube containing 100 units of heparin sodium (Shimizu Pharmaceutical) was added 25 ml of fresh blood sampled from a healthy human. After adding and mixing therewith 8 ml of physiological saline (Otsuka Pharmaceutical) containing 6% Dextran (Nacalai), the mixture was allowed to stand room temperature for 45 minutes for sedimentation of the erythrocytes. The resultant supernatant was transferred to another plastic centrifugation tube and combined with an equivalent volume of phosphate-buffered saline (hereinafter abbreviated as PBS; Sigma), and then centrifuged at 1600 rpm for 7 minutes at room temperature. The obtained hematocyte fraction was suspended in 4 ml of PBS, and the suspension was superposed on 4 ml of Ficoll-Paque™ PLUS (Amersham Biosciences). The resultant bilayer liquid was centrifuged at 2000 rpm for 30 minutes at room temperature, after which the supernatant was removed and the precipitate was suspended in 10 ml of PBS and centrifuged at 1200 rpm for 7 minutes, and the supernatant was removed. The resulting precipitate was suspended in 0.5 ml of PBS again, and then 10 ml of distilled water (Otsuka Pharmaceutical) was added, 0.5 ml of an aqueous solution containing 3 M NaCl was immediately added to restore isotonicity, the mixture was centrifuged at 1200 rpm for 7 minutes, and the obtained precipitate was suspended in PBS containing 1 mg/ml bovine serum albumin (hereinafter abbreviated as BSA; Sigma) again and stored in ice until being used for the experiment.
<Fluorescent Labeling of Human Peripheral Blood Neutrophils>
The obtained neutrophils were suspended in PBS containing 1 mg/ml BSA at 2×10^7 cells/ml. BCECF-AM (Dojin) was added to a final concentration of 5 μM, and the mixture was incubated at 37° C. for 45 minutes. It was then rinsed twice with PBS containing 1 mg/ml BSA by centrifugation, suspended again in PBS containing 1 mg/ml BSA at 5×10^7 cells/ml, and stored in ice until use.
<Preparation of HUVEC Immobilized Plate>
Human umbilical vein endothelial cells (hereinafter abbreviated as HUVEC) were suspended in MCDB131 medium (Chlorella Industries) containing 10% fetal calf serum and 30 μg/ml endothelial cell growth supplement (Becton Dickinson Bioscience). The suspension was added at 7.5×10^3 cells/well to a 96-well plate (Iwaki) immobilized with type I collagen, and cultured for 3 days in a CO2 incubator (Hirasawa). Upon confirming confluency of the cells, the supernatant was discarded, the plate was rinsed twice with PBS, and then PBS containing 0.1% glutaraldehyde (Kanto Kagaku) was added at 100 μl/well and the HUVECs were immobilized for 5 minutes. The supernatant was discarded and the plate was washed twice with PBS, and then PBS was added at 100 μl/well and the mixture was stored at 4° C. until use.
To 6.5 ml of RPMI-1640 medium (Sigma) containing 1 mg/ml of BSA were added 0.5 ml of a suspension of BCECF-AM labeled neutrophils at 5×10^7/ml stored in ice, which was mixed, and the mixture was added at 80 μl/well to a HUVEC immobilized plate. […] The supernatant was removed from the plate, which was then washed several times with RPMI-1640 at 100 μl/well, and then PBS containing 0.1% NP-40 (Calbiochem) was added thereto at 100 μl/well and the fluorescent intensity was measured with an ARVO™SX 1420 multi label counter (Wallac) to determine the number of adhered cells. […]

[3] = system: DSS-induced colitis; assay: DSS-induced colitis model; format: in vivo, Balb/c mice; conditions: 30 mg/kg orally once a day for 5-7 successive days; 1-3% DSS in water for 5-7 days
Text: Evaluation of Compounds in DSS-Induced Colitis Model
A 1-3% solution of dextran sulfate sodium (hereinafter abbreviated as DSS; ICN) in purified water (Otsuka Pharmaceutical) was fed freely to 6- to 7-week-old male Balb/c mice (Charles River Japan) for 5-7 days to induce colitis. Disease Activity Index (hereinafter abbreviated as DAI) scored based on fecal hardness, blood content in feces and body weight change, the number of neutrophils infiltrating the colon and the length of the colon were used as indexes to evaluate compounds. Each compound was suspended or dissolved in an aqueous solution containing 0.5% methyl cellulose (Wako), and orally administered at 30 mg/kg once a day, for 5-7 successive days.

SMILES | IC50 [1] | IC50 [2] | improvement in comparison with the DSS control group (DAI, number of neutrophils infiltrating the colon, length of the colon) [3]
CCCCN1CCN(c2cc(C#N)ccc2[C@H]2CC[C@@H](C(C)(C)C)CC2)CC1.Cl [Example 12, cis-4-(4-t-Butylcyclohexyl)-3-(4-butylpiperazine-1-yl)benzonitrile hydrochloride] | 3.1 µM | 18.3 µM | particularly good improvement
CCCCN1CCN(c2cc(C#N)ccc2[C@H]2CC[C@H](C(C)(C)C)CC2)CC1.Cl [Example 13, trans-4-(4-t-Butylcyclohexyl)-3-(4-butylpiperazin-1-yl)benzonitrile hydrochloride] | 3.9 µM | 53.9 µM | particularly good improvement
